Data taken from patent US20220298115A1, “SMALL MOLECULE INHIBITORS OF ACETYL COENZYME A SYNTHETASE SHORT CHAIN 2 (ACSS2)” (Curadev Pharma Pvt. Ltd., priority 2019, published 2022).

Columns and labels:
[1] = molecular target: T1, human ACSS2 (Homo sapiens, UniProt Q9NR19); assay: ACSS2 enzyme assay (acetyl-CoA formation, LC-MS/MS); assay type: biochemical; conditions: cytosolic fraction of BT474 cells as ACSS2 source; 100 μM acetate, CoA and ATP; 2 h at 25° C.; read-out: Enzyme Activity (IC50 range)
T1 construct: The cytosolic fraction of BT474 cells was used as a source of the ACSS2 enzyme; endogenous in cells; host or cells: BT474 cells (cytosolic fraction)
T1 sequence (Q9NR19 whole entry): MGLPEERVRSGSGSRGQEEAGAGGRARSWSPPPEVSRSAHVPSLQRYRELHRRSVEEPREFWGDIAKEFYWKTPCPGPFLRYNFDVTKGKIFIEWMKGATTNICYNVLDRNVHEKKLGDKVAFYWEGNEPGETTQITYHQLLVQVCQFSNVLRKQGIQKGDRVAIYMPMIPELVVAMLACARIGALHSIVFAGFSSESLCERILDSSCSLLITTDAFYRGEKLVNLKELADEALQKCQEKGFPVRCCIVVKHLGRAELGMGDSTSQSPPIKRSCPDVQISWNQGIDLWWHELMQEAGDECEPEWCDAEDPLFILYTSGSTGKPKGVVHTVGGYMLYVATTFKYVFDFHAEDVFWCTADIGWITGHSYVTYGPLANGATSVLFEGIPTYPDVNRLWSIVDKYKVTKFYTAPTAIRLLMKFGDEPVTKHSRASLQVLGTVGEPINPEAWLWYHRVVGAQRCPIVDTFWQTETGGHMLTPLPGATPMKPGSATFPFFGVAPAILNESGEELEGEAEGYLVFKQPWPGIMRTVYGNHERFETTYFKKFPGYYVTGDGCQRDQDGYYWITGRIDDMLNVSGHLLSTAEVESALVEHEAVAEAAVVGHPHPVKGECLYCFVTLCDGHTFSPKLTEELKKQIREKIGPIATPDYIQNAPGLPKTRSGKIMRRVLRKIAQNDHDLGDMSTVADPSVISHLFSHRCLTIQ
Method in brief: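 Enzyme source was BT474 cytosolic fraction (100 ng), preincubated 5 min with compound in 25 mM Tris-HCl pH7.4, 1 mM MgCl2, 1 mM DTT, 0.05% Tween20, 1% DMSO. Reaction started with 100 μM each of acetate, CoA and ATP, 2 h at 25 °C, stopped with TCA; acetyl-CoA quantified by LC-MS/MS.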

[2] = test system: [14C] acetate incorporation in macromolecules, BT474 cells; assay: Cell based [14C] acetate incorporation assay; conditions: Homo sapiens, BT-474, 3 h at 37° C., read-out: Cellular Activity (IC50 range)
Method in brief: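 BT474 cells (4×10^4/well, plated overnight) were preincubated with compound for 10 min at 37°C in HBSS. They were then given 0.1 μCi [14C]acetate plus 10 μM unlabelled acetate (both in the added acetate solution) for 3 h at 37°C, 5% CO2. Label incorporated into macromolecules was harvested onto PEI-treated filters and counted by scintillation.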

IC50 [1] | IC50 [2] | SMILES
< 100 nM | < 100 nM | CCC(F)(F)CNC(=O)Nc1ccc2nc(-c3ccccc3)c(-c3ccccc3)cc2c1 [Example 107, 1-(2,2-difluorobutyl)-3-(2,3-diphenylquinolin-6-yl)urea]
< 100 nM | < 100 nM | CC[C@H](CNC(=O)Nc1ccc2nc(-c3ccccc3)c(-c3ccccc3F)cc2c1)OP(=O)(O)O [Example 117, (R)-1-(3-(3-(2-fluorophenyl)-2-phenylquinolin-6-yl)ureido)butan-2-yl dihydrogen phosphate]
≤ 1000 nM | ≤ 1000 nM | CCCCCC(=O)Nc1ccc2nc(-c3ccccc3)c(-c3ccccc3)cc2c1 [Example 118, N-(2,3-diphenyl-quinolin-6-yl) hexanamide]
< 100 nM | < 100 nM | CCC(=O)CCC(=O)Nc1ccc2nc(-c3ccccc3OC)c(-c3ccccc3)cc2c1 [Example 120, N-(2-(2-methoxy-phenyl)-3-phenyl-quinolin-6-yl)-4-oxohexan-amide]
< 100 nM | ≤ 1000 nM | CCCCCC(=O)Nc1ccc2nc(-c3ccccc3F)c(-c3ccccc3F)cc2c1 [Example 121, N-(2,3-bis(2-fluorophenyl)quinolin-6-yl) hexanamide]
≤ 10000 nM | > 10000 nM | CCCCC(F)(F)C(=O)Nc1ccc2nc(-c3ccccc3)c(-c3ccccc3)cc2c1 [Example 122, N-(2,3-diphenyl-quinolin-6-yl)-2,2-difluoro-hexanamide]
< 100 nM | < 100 nM | CCC(=O)CCC(=O)Nc1ccc2nc(-c3ccccc3F)c(-c3ccccc3)cc2c1 [Example 123, N-(2-(2-fluorophenyl)-3-phenyl-quinolin-6-yl)-4-oxohexan-amide]
< 100 nM | < 100 nM | CCC(=O)CCC(=O)Nc1ccc2nc(-c3ccccc3F)c(-c3ccccc3F)cc2c1 [Example 124, N-(2,3-Bis(2-fluorophenyl)quinolin-6-yl)-4-oxohexanamide]
< 100 nM | < 100 nM | CCC(=O)CCC(=O)Nc1ccc2nc(-c3ccccc3)c(-c3ccccc3)cc2c1 [Example 125, N-(2,3-diphenyl-quinolin-6-yl)-4-oxohexan-amide]
< 100 nM | < 100 nM | CCC(=O)CCC(=O)Nc1ccc2nc(-c3ccccc3OC)c(-c3ccccc3F)cc2c1 [Example 126, N-(3-(2-fluoro-phenyl)-2-(2-methoxy-phenyl)quinolin-6-yl)-4-oxohexan-amide]
< 100 nM | < 100 nM | CCC(O)CCC(=O)Nc1ccc2nc(-c3ccccc3)c(-c3ccccc3)cc2c1 (stereo not drawn) [Example 127, N-(2,3-diphenyl-quinolin-6-yl)-4-hydroxy-hexanamide]
< 100 nM | < 100 nM | CCC(O)CCC(=O)Nc1ccc2nc(-c3ccccc3F)c(-c3ccccc3F)cc2c1 (stereo not drawn) [Example 128, N-(2,3-Bis(2-fluorophenyl)quinolin-6-yl)-4-hydroxyhexanamide]
< 100 nM | ≤ 1000 nM | CCC(O)CCC(=O)Nc1ccc2nc(C)c(-c3ccccc3)cc2c1 (stereo not drawn) [Example 130, 4-hydroxy-N-(2-methyl-3-phenyl-quinolin-6-yl)hexan-amide]

Further lines, the compound ahead of its results:

SMILES | IC50 [1] | IC50 [2]
CC[C@@H](O)CNC(=O)Nc1ccc2nc(C)c(-c3ccccc3)cc2c1-c1cnn(C)c1 [Example 96, (R)-1-(2-hydroxybutyl)-3-(2-methyl-5-(1-methyl-1H-pyrazol-4-yl)-3-phenylquinolin-6-yl)urea] | < 100 nM | < 100 nM
CCC(O)CNC(=O)Nc1ccc2nc(-c3ccccc3)c(-c3ccccc3)c(-c3ncco3)c2c1 (stereo not drawn) [Example 97, 1-(2-hydroxybutyl)-3-(4-(oxazol-2-yl)-2,3-diphenylquinolin-6-yl)urea] | < 100 nM | < 100 nM
CCC(O)CNC(=O)Nc1ccc2nc(C)c(-c3ccccc3)c(C#N)c2c1 (stereo not drawn) [Example 98, 1-(4-cyano-2-methyl-3-phenylquinolin-6-yl)-3-(2-hydroxybutyl) urea] | ≤ 1000 nM | < 100 nM
CCC(CNC(=O)Nc1ccc2nc(C)c(-c3ccccc3)cc2c1)NC(C)=O (stereo not drawn) [Example 99, N-(1-(3-(2-methyl-3-phenylquinolin-6-yl)ureido)butan-2-yl)acetamide] | ≤ 1000 nM | ≤ 1000 nM
CC[C@@H](O)CNC(=O)Nc1ccc2nc(C)c(-c3ccccc3F)cc2c1 [Example 100, (R)-1-(3-(2-fluorophenyl)-2-methylquinolin-6-yl)-3-(2-hydroxybutyl) urea] | < 100 nM | < 100 nM
CC[C@@H](O)CNC(=O)Nc1ccc2nc(-c3ccccc3)c(-c3ccccc3)c(OC)c2c1 [Example 101, (R)-1-(2-Hydroxybutyl)-3-(4-methoxy-2,3-diphenylquinolin-6-yl)urea] | < 100 nM | < 100 nM
CC[C@@H](O)CNC(=O)Nc1ccc2nc(C)c(-c3ccccc3)c(OC)c2c1 [Example 102, (R)-1-(2-hydroxybutyl)-3-(4-methoxy-2-methyl-3-phenylquinolin-6-yl)urea] | < 100 nM | < 100 nM
CC[C@@H](O)CNC(=O)Nc1ccc2nc(-c3ccccc3)c(-c3ccccc3)c(C)c2c1 [Example 103, (R)-1-(2-hydroxybutyl)-3-(4-methyl-2,3-diphenylquinolin-6-yl)urea] | < 100 nM | < 100 nM
CC[C@@H](O)CNC(=O)Nc1ccc2nc(-c3ccccc3)c(C)c(C(=O)NCc3ccccc3)c2c1 [Example 104, (R)-N-benzyl-6-(3-(2-hydroxybutyl)ureido)-3-methyl-2-phenylquinoline-4-carboxamide] | < 100 nM | < 100 nM
CCC(F)(F)CNC(=O)Nc1ccc2nc(C)c(-c3ccccc3)cc2c1 [Example 105, 1-(2,2-difluorobutyl)-3-(2-methyl-3-phenylquinolin-6-yl)urea] | < 100 nM | < 100 nM
CCC(F)(F)CNC(=O)Nc1ccc2nc(-c3ccccc3)c(-c3ccccc3)c(C(N)=O)c2c1 [Example 106, 6-(3-(2,2-difluorobutyl)ureido)-2,3-diphenylquino-line-4-carboxamide] | < 100 nM | < 100 nM
CC[C@@H](O)CNC(=O)Nc1ccc2nc(-c3ccccc3)c(C)c(C(=O)NC)c2c1 [Example 108, (R)-6-(3-(2-hydroxybutyl)ureido)-N,3-dimethyl-2-phenylquinoline-4-carboxamide] | < 100 nM | < 100 nM
CC[C@@H](O)CNC(=O)Nc1ccc2nc(-c3ccccc3)c(C)c(C(N)=O)c2c1 [Example 109, (R)-6-(3-(2-hydroxybutyl)ureido)-3-methyl-2-phenylquinoline-4-carboxamide] | < 100 nM | ≤ 1000 nM
CCC(F)(F)CNC(=O)Nc1ccc2nc(C)c(-c3ccccc3F)cc2c1 [Example 110, 1-(2,2-difluorobutyl)-3-(3-(2-fluorophenyl)-2-methylquinolin-6-yl)urea] | < 100 nM | < 100 nM
CC[C@@H](O)CNC(=O)Nc1ccc2nc(C)c(-c3ccccc3F)cc2c1-c1ccc[nH]c1=O [Example 111, (R)-1-(3-(2-fluorophenyl)-2-methyl-5-(2-oxo-1,2-dihydropyridin-3-yl)quinolin-6-yl)-3-(2-hydroxybutyl) urea] | < 100 nM | ≤ 1000 nM
CC[C@@H](O)CNC(=O)Nc1ccc2nc(-c3ccccc3)c(-c3ccccc3)c(C(=O)Nc3ccn(C)n3)c2c1 [Example 112, (R)-6-(3-(2-hydroxybutyl)ureido)-N-(1-methyl-1H-pyrazol-3-yl)-2,3-diphenylquino-line-4-carboxamide] | < 100 nM | < 100 nM
CC[C@@H](O)CNC(=O)Nc1ccc2nc(C)c(-c3ccccc3)c(C)c2c1 [Example 113, (R)-1-(2,4-dimethyl-3-phenylquinolin-6-yl)-3-(2-hydroxybutyl) urea] | < 100 nM | < 100 nM
CC[C@@H](O)CNC(=O)Nc1ccc2nc(-c3ccccc3)c(C)c(C(=O)NCc3cnn(C)c3)c2c1 [Example 114, (R)-6-(3-(2-hydroxybutyl)ureido)-3-methyl-N-((1-methyl-1H-pyrazol-4-yl)methyl)-2-phenylquinoline-4-carboxamide] | < 100 nM | ≤ 1000 nM
CC[C@@H](O)CNC(=O)Nc1ccc2nc(-c3ccccc3)c(C)c(C(=O)Nc3ccn(C)n3)c2c1 [Example 115, (R)-6-(3-(2-Hydroxybutyl)ureido)-3-methyl-N-(1-methyl-1H-pyrazol-3-yl)-2-phenylquinoline-4-carboxamide] | < 100 nM | ≤ 1000 nM
COCCNC(=O)Nc1ccc2nc(C)c(-c3ccccc3F)cc2c1 [Example 116, 1-(3-(2-fluorophenyl)-2-methylquinolin-6-yl)-3-(2-methoxyethyl) urea] | ≤ 1000 nM | < 100 nM
CCCCCC(=O)Nc1ccc2nc(-c3ccccc3OC)c(-c3ccccc3OC)cc2c1 [Example 119, N-(2,3-bis(2-methoxy-phenyl)quinolin-6-yl) hexanamide] | < 100 nM | < 100 nM
CCC(O)CCC(=O)Nc1ccc2nc(C)c(-c3ccccc3F)cc2c1 (stereo not drawn) [Example 129, N-(3-(2-fluorophenyl)-2-methyl-quinolin-6-yl)-4-hydroxy-hexanamide] | < 100 nM | < 100 nM
O=C(Nc1ccc2nc(-c3ccccc3)c(-c3ccccc3)cc2c1)NC1CCCCC1 [Example 131, 1-cyclohexyl-3-(2,3-diphenylquinolin-6-yl)urea] | ≤ 1000 nM | ≤ 1000 nM
